Converted amounts (≈) assume the structure as drawn.
Key:
Escherichia coli = assay: Antibacterial activity against Escherichia coli ATCC 25922 assessed as inhibition of bacterial growth incubated for 16 to 18 hrs by CLSI protocol based method; format: functional; details: time 16-18 hrs, read-out: MIC100
Staphylococcus aureus = assay: Antibacterial activity against Staphylococcus aureus ATCC 29213 assessed as inhibition of bacterial growth incubated for 16 to 18 hrs by CLSI protocol based method; format: functional; details: time 16-18 hrs, read-out: MIC100
Klebsiella pneumoniae = assay: Antibacterial activity against Klebsiella pneumoniae BAA 1705 assessed as inhibition of bacterial growth incubated for 16 to 18 hrs by CLSI protocol based method; format: functional; details: time 16-18 hrs, read-out: MIC100
Acinetobacter baumannii [1] = assay: Antibacterial activity against carbapenem-resistant Acinetobacter baumannii BAA 1605 assessed as inhibition of bacterial growth incubated for 16 to 18 hrs by CLSI protocol based method; format: functional; details: time 16-18 hrs, read-out: MIC100
Pseudomonas aeruginosa = assay: Antibacterial activity against Pseudomonas aeruginosa ATCC 27853 assessed as inhibition of bacterial growth incubated for 16 to 18 hrs by CLSI protocol based method; format: functional; details: time 16-18 hrs, read-out: MIC100
[2] = Cytotoxicity against African green monkey Vero cells assessed as reduction in cell viability incubated for 72 hrs by MTT assay; format: toxicity, cell-based; details: chlorocebus sabaeus
[3] = Selectivity index, ratio of CC50 for cytotoxicity against African green monkey VERO cells to MIC for antibacterial activity against carbapenem-resistant Acinetobacter baumannii BAA 1605 assessed as inhibition of bacterial growth; format: toxicity, cell-based; details: read-out: Selectivity Index
Acinetobacter baumannii [4] = assay: Antibacterial activity against multi-drug resistant Acinetobacter baumannii H72721 assessed as inhibition of bacterial growth incubated for 16 to 18 hrs by CLSI protocol based method; format: functional; details: time 16-18 hrs, read-out: MIC100
Acinetobacter baumannii [5] = assay: Antibacterial activity against multi-drug resistant Acinetobacter baumannii clinical isolate 1 assessed as inhibition of bacterial growth incubated for 16 to 18 hrs by CLSI protocol based method; format: functional; details: time 16-18 hrs, read-out: MIC100
Acinetobacter baumannii [6] = assay: Antibacterial activity against multi-drug resistant Acinetobacter baumannii clinical isolate 2 assessed as inhibition of bacterial growth incubated for 16 to 18 hrs by CLSI protocol based method; format: functional; details: time 16-18 hrs, read-out: MIC100
Acinetobacter baumannii [7] = assay: Antibacterial activity against multi-drug resistant Acinetobacter baumannii clinical isolate 3 assessed as inhibition of bacterial growth incubated for 16 to 18 hrs by CLSI protocol based method; format: functional; details: time 16-18 hrs, read-out: MIC100
Acinetobacter baumannii [8] = assay: Antibacterial activity against multi-drug resistant Acinetobacter baumannii clinical isolate 4 assessed as inhibition of bacterial growth incubated for 16 to 18 hrs by CLSI protocol based method; format: functional; details: time 16-18 hrs, read-out: MIC100
Acinetobacter baumannii [9] = assay: Antibacterial activity against multi-drug resistant Acinetobacter baumannii clinical isolate 5 assessed as inhibition of bacterial growth incubated for 16 to 18 hrs by CLSI protocol based method; format: functional; details: time 16-18 hrs, read-out: MIC100
Acinetobacter baumannii [10] = assay: Antibacterial activity against multi-drug resistant Acinetobacter baumannii clinical isolate 6 assessed as inhibition of bacterial growth incubated for 16 to 18 hrs by CLSI protocol based method; format: functional; details: time 16-18 hrs, read-out: MIC100
Acinetobacter baumannii [11] = assay: Antibacterial activity against multi-drug resistant Acinetobacter baumannii clinical isolate 7 assessed as inhibition of bacterial growth incubated for 16 to 18 hrs by CLSI protocol based method; format: functional; details: time 16-18 hrs, read-out: MIC100
Acinetobacter baumannii [12] = assay: Antibacterial activity against multi-drug resistant Acinetobacter baumannii clinical isolate 8 assessed as inhibition of bacterial growth incubated for 16 to 18 hrs by CLSI protocol based method; format: functional; details: time 16-18 hrs, read-out: MIC100
Acinetobacter baumannii [13] = assay: Antibacterial activity against multi-drug resistant Acinetobacter baumannii clinical isolate 9 assessed as inhibition of bacterial growth incubated for 16 to 18 hrs by CLSI protocol based method; format: functional; details: time 16-18 hrs, read-out: MIC100
Acinetobacter baumannii [14] = assay: Antibacterial activity against multi-drug resistant Acinetobacter baumannii clinical isolate 10 assessed as inhibition of bacterial growth incubated for 16 to 18 hrs by CLSI protocol based method; format: functional; details: time 16-18 hrs, read-out: MIC100
Acinetobacter baumannii [15] = assay: Antibacterial activity against multi-drug resistant Acinetobacter baumannii clinical isolate 11 assessed as inhibition of bacterial growth incubated for 16 to 18 hrs by CLSI protocol based method; format: functional; details: time 16-18 hrs, read-out: MIC100
Acinetobacter baumannii [16] = assay: Antibacterial activity against multi-drug resistant Acinetobacter baumannii clinical isolate 12 assessed as inhibition of bacterial growth incubated for 16 to 18 hrs by CLSI protocol based method; format: functional; details: time 16-18 hrs, read-out: MIC100
Acinetobacter baumannii [17] = assay: Antibacterial activity against multi-drug resistant Acinetobacter baumannii NR-17777 assessed as inhibition of bacterial growth incubated for 16 to 18 hrs by CLSI protocol based method; format: functional; details: time 16-18 hrs, read-out: MIC100
Acinetobacter baumannii [18] = assay: Antibacterial activity against multi-drug resistant Acinetobacter baumannii 5-032 assessed as inhibition of bacterial growth incubated for 16 to 18 hrs by CLSI protocol based method; format: functional; details: time 16-18 hrs, read-out: MIC100
Acinetobacter baumannii [19] = assay: Antibacterial activity against multi-drug resistant Acinetobacter baumannii 5-109 assessed as inhibition of bacterial growth incubated for 16 to 18 hrs by CLSI protocol based method; format: functional; details: time 16-18 hrs, read-out: MIC100
Acinetobacter baumannii [20] = assay: Antibacterial activity against multi-drug resistant Acinetobacter baumannii 5-143 assessed as inhibition of bacterial growth incubated for 16 to 18 hrs by CLSI protocol based method; format: functional; details: time 16-18 hrs, read-out: MIC100
Acinetobacter baumannii [21] = assay: Antibacterial activity against multi-drug resistant Acinetobacter baumannii 5-189 assessed as inhibition of bacterial growth incubated for 16 to 18 hrs by CLSI protocol based method; format: functional; details: time 16-18 hrs, read-out: MIC100
Acinetobacter baumannii [22] = assay: Antibacterial activity against multi-drug resistant Acinetobacter baumannii BC-5 assessed as inhibition of bacterial growth incubated for 16 to 18 hrs by CLSI protocol based method; format: functional; details: time 16-18 hrs, read-out: MIC100
Acinetobacter baumannii [23] = assay: Antibacterial activity against multi-drug resistant Acinetobacter baumannii Naval-17 assessed as inhibition of bacterial growth incubated for 16 to 18 hrs by CLSI protocol based method; format: functional; details: time 16-18 hrs, read-out: MIC100
Acinetobacter baumannii [24] = assay: Antibacterial activity against multi-drug resistant Acinetobacter baumannii Naval-18 assessed as inhibition of bacterial growth incubated for 16 to 18 hrs by CLSI protocol based method; format: functional; details: time 16-18 hrs, read-out: MIC100
Acinetobacter baumannii [25] = assay: Antibacterial activity against multi-drug resistant Acinetobacter baumannii Naval-81 assessed as inhibition of bacterial growth incubated for 16 to 18 hrs by CLSI protocol based method; format: functional; details: time 16-18 hrs, read-out: MIC100
Acinetobacter baumannii [26] = assay: Antibacterial activity against multi-drug resistant Acinetobacter baumannii WL-136 assessed as inhibition of bacterial growth incubated for 16 to 18 hrs by CLSI protocol based method; format: functional; details: time 16-18 hrs, read-out: MIC100
Acinetobacter baumannii [27] = assay: Antibacterial activity against multi-drug resistant Acinetobacter baumannii WL-487 assessed as inhibition of bacterial growth incubated for 16 to 18 hrs by CLSI protocol based method; format: functional; details: time 16-18 hrs, read-out: MIC100
Acinetobacter baumannii [28] = assay: Antibacterial activity against Acinetobacter baumannii ATCC 17978 assessed as inhibition of bacterial growth incubated for 16 to 18 hrs by CLSI protocol based method; format: functional; details: time 16-18 hrs, read-out: MIC100
Acinetobacter baumannii [29] = assay: Antibacterial activity against Acinetobacter baumannii assessed as inhibition of bacterial growth by CLSI protocol based assay; format: functional
Acinetobacter baumannii [30] = assay: Antibacterial activity against Acinetobacter baumannii; format: functional

SMILES | MIC (Escherichia coli) [µg/mL] | MIC (Staphylococcus aureus) [µg/mL] | MIC (Klebsiella pneumoniae) [µg/mL] | MIC (Acinetobacter baumannii [1]) [µg/mL] | MIC (Pseudomonas aeruginosa) [µg/mL] | CC50 at 72 h [2] [µg/mL] | selectivity ratio [3] | MIC (Acinetobacter baumannii [4]) [µg/mL] | MIC (Acinetobacter baumannii [5]) [µg/mL] | MIC (Acinetobacter baumannii [6]) [µg/mL] | MIC (Acinetobacter baumannii [7]) [µg/mL] | MIC (Acinetobacter baumannii [8]) [µg/mL] | MIC (Acinetobacter baumannii [9]) [µg/mL] | MIC (Acinetobacter baumannii [10]) [µg/mL] | MIC (Acinetobacter baumannii [11]) [µg/mL] | MIC (Acinetobacter baumannii [12]) [µg/mL] | MIC (Acinetobacter baumannii [13]) [µg/mL] | MIC (Acinetobacter baumannii [14]) [µg/mL] | MIC (Acinetobacter baumannii [15]) [µg/mL] | MIC (Acinetobacter baumannii [16]) [µg/mL] | other results
O=C(CCN1C(=O)c2cccc3cccc(c23)C1=O)NNc1ccc(Cl)cc1 | > 64 | > 64 | > 64 | 0.5 (≈ 1.27 µM) | > 64 | > 100 | > 200 | 1 (≈ 2.54 µM) | 1 (≈ 2.54 µM) | 1 (≈ 2.54 µM) | 0.5 (≈ 1.27 µM) | 1 (≈ 2.54 µM) | 2 (≈ 5.08 µM) | 2 (≈ 5.08 µM) | 1 (≈ 2.54 µM) | 1 (≈ 2.54 µM) | 1 (≈ 2.54 µM) | 2 (≈ 5.08 µM) | 2 (≈ 5.08 µM) | 1 (≈ 2.54 µM) | MIC (Acinetobacter baumannii [17]): 2 µg/mL (≈ 5.08 µM); MIC (Acinetobacter baumannii [18]): 2 µg/mL (≈ 5.08 µM); MIC (Acinetobacter baumannii [19]): 2 µg/mL (≈ 5.08 µM); MIC (Acinetobacter baumannii [20]): 2 µg/mL (≈ 5.08 µM); MIC (Acinetobacter baumannii [21]): 2 µg/mL (≈ 5.08 µM); MIC (Acinetobacter baumannii [22]): 1 µg/mL (≈ 2.54 µM); MIC (Acinetobacter baumannii [23]): 1 µg/mL (≈ 2.54 µM); MIC (Acinetobacter baumannii [24]): 1 µg/mL (≈ 2.54 µM); MIC (Acinetobacter baumannii [25]): 1 µg/mL (≈ 2.54 µM); MIC (Acinetobacter baumannii [26]): 1 µg/mL (≈ 2.54 µM); MIC (Acinetobacter baumannii [27]): 1 µg/mL (≈ 2.54 µM); MIC (Acinetobacter baumannii [28]): 1 µg/mL (≈ 2.54 µM)
O=C(CCN1C(=O)c2cccc3cccc(c23)C1=O)NNc1ccc(F)cc1 | > 64 | > 64 | > 64 | 1 (≈ 2.65 µM) | > 64 | 80 (≈ 212 µM) | 80 | 2 (≈ 5.3 µM) | 2 (≈ 5.3 µM) | 2 (≈ 5.3 µM) | 0.5 (≈ 1.32 µM) | 2 (≈ 5.3 µM) | 4 (≈ 10.6 µM) | 4 (≈ 10.6 µM) | 2 (≈ 5.3 µM) | 2 (≈ 5.3 µM) | 2 (≈ 5.3 µM) | 2 (≈ 5.3 µM) | 2 (≈ 5.3 µM) | 2 (≈ 5.3 µM) | MIC (Acinetobacter baumannii [17]): 4 µg/mL (≈ 10.6 µM); MIC (Acinetobacter baumannii [18]): 4 µg/mL (≈ 10.6 µM); MIC (Acinetobacter baumannii [19]): 4 µg/mL (≈ 10.6 µM); MIC (Acinetobacter baumannii [20]): 2 µg/mL (≈ 5.3 µM); MIC (Acinetobacter baumannii [21]): 4 µg/mL (≈ 10.6 µM); MIC (Acinetobacter baumannii [22]): 1 µg/mL (≈ 2.65 µM); MIC (Acinetobacter baumannii [23]): 2 µg/mL (≈ 5.3 µM); MIC (Acinetobacter baumannii [24]): 2 µg/mL (≈ 5.3 µM); MIC (Acinetobacter baumannii [25]): 2 µg/mL (≈ 5.3 µM); MIC (Acinetobacter baumannii [26]): 2 µg/mL (≈ 5.3 µM); MIC (Acinetobacter baumannii [27]): 1 µg/mL (≈ 2.65 µM); MIC (Acinetobacter baumannii [28]): 1 µg/mL (≈ 2.65 µM)
CN1C(=O)/C(=C/NNc2ccc(C#N)cc2)SC1=S | – | – | – | – | – | – | – | – | – | – | – | – | – | – | – | – | – | – | – | – | MIC (Acinetobacter baumannii [29]): 16 µg/mL (≈ 55.1 µM)
N#Cc1ccc(NNC(=O)c2ccc(Br)cc2)cc1 | – | – | – | – | – | – | – | – | – | – | – | – | – | – | – | – | – | – | – | – | MIC (Acinetobacter baumannii [30]): 0.25 µg/mL (≈ 0.791 µM)
N#Cc1ccc(NNC(=O)CCN2C(=O)c3cccc4cccc(c34)C2=O)cc1 | > 64 | > 64 | > 64 | 0.5 (≈ 1.3 µM) | > 64 | > 100 | > 200 | 2 (≈ 5.2 µM) | 1 (≈ 2.6 µM) | 2 (≈ 5.2 µM) | 1 (≈ 2.6 µM) | 2 (≈ 5.2 µM) | 4 (≈ 10.4 µM) | 4 (≈ 10.4 µM) | 1 (≈ 2.6 µM) | 2 (≈ 5.2 µM) | 2 (≈ 5.2 µM) | 8 (≈ 20.8 µM) | 2 (≈ 5.2 µM) | 2 (≈ 5.2 µM) | MIC (Acinetobacter baumannii [17]): 2 µg/mL (≈ 5.2 µM); MIC (Acinetobacter baumannii [18]): 2 µg/mL (≈ 5.2 µM); MIC (Acinetobacter baumannii [19]): 2 µg/mL (≈ 5.2 µM); MIC (Acinetobacter baumannii [20]): 1 µg/mL (≈ 2.6 µM); MIC (Acinetobacter baumannii [21]): 4 µg/mL (≈ 10.4 µM); MIC (Acinetobacter baumannii [22]): 2 µg/mL (≈ 5.2 µM); MIC (Acinetobacter baumannii [23]): 2 µg/mL (≈ 5.2 µM); MIC (Acinetobacter baumannii [24]): 2 µg/mL (≈ 5.2 µM); MIC (Acinetobacter baumannii [25]): 2 µg/mL (≈ 5.2 µM); MIC (Acinetobacter baumannii [26]): 2 µg/mL (≈ 5.2 µM); MIC (Acinetobacter baumannii [27]): 4 µg/mL (≈ 10.4 µM); MIC (Acinetobacter baumannii [28]): 2 µg/mL (≈ 5.2 µM)

From ChEMBL document CHEMBL6134788, “Development of naphthalimide hydrazide derivatives as potent antibacterial agents against carbapenem-resistant A. baumannii” (RSC Med Chem, 2024)
